Data reported in US7208270B2, “Method for diagnosing a person having multiple sclerosis” (priority 2001, dated 2007).
“Also recorded” adds a separate entry of the source.

Experiments:
[1] = tested on: SARG-1 over-expressing PC12 cells; test: Viability of SARG-1 over-expressing PC12 cultures treated with kinase inhibitors; type: cell-based, rat; settings: staurosporine at 100 nM, in comparison to vector control cultures
Description: (§1) To examine the expression and function of SARG-1 in a neural cell culture system, standard molecular biology techniques (Sanbrook et al, 1989) were used to clone the rat SARG-1 coding sequence (rSARG-1479) into the pIRESII-EGFP eukaryotic expression vector (Clontech) under the control of a CMV promoter which bicistroni-cally translates through an internal IRES sequence both SARG-1477 and enhanced green fluorescent protein. The rat pheochromocytoma PC12 cell line was maintained in DMEM supplemented with 8% horse serum, 8% fetal calf serum and an antibiotic-antimycotic mix containing 100 units/ml penicillin, 100 μg/ml streptomycin, and 0.25 μg/ml amphotericin B (all from GibcoBRL) in a fully humidified air atmosphere containing 5% CO2 at 37° C. Semi-confluent cultures in 6-well plates were transfected with pIRES2-EGFP-SARG-1 or empty vector for 18 h in the presence of the uptake enhancing cationic lipid mix pFx1 (Invitrogen) at a 6:1 lipid to DNA ratio in serum-free opti-MEN (Gibco). Stable transfectant colonies were picked from separate wells after selection in […] geneticin (Gibco) and clones with similar EGFP fluorescence expanded from independent transfections.
(§2) Over-expression of SARG-1 also enhances terminal differentiation of PC12 cells induced by nerve growth factor (FIG. 14).

[2] = tested on: PC12 cells transfected with empty vector; test: Vector control PC12 cultures treated with staurosporine; type: cell-based, rat; settings: 100 nM
Description: as §1, §2

[3] = tested on: SARG-1 over-expressing PC12 cells; test: Flow cytometrical cell cycle analysis of transfected PC12 cells; type: cell-based, rat; settings: 100 nM, 24 h, ethanol fixed cells
Description: as §2

PC12 cells = settings: cited from earlier work

Compound	effect on viability / cell death [1]	effect on vector control cultures [2]	flow cytometry: sub G0/G1 peak / loss of DNA characteristic of apoptosis [3]	concentration inducing apoptosis (PC12 cells; Fu et al, 1999)	concentration inducing neurite outgrowth (PC12 cells; Hashimoto and Hagino, 1989) [nM]
COC(=O)[C@@]1(O)C[C@H]2O[C@]1(C)n1c3ccccc3c3c4c(c5c6ccccc6n2c5c31)C(=O)NC4 [X252a]	No similar effects	–	–	–	–
CN[C@@H]1C[C@H]2O[C@@](C)([C@@H]1OC)n1c3ccccc3c3c4c(c5c6ccccc6n2c5c31)C(=O)NC4 [staurosporine]	rapid loss in viability	neurite outgrowth	sub G0/G1 peak characteristic for the induction of apoptosis is seen only in SARG-1 over-expressing cells; also recorded: loss of DNA from ethanol fixed cells	above 1 mM	100
CN(C)CCCn1cc(C2=C(c3c[nH]c4ccccc34)C(=O)NC2=O)c2ccccc21 [Bisindolylmaleimide I]	No similar effects	–	–	–	–
COc1cccc(-c2cc(=O)c3ccccc3o2)c1N [PD 98059]	No similar effects	–	–	–	–
